Laboratory results taken from patent US20090155209A1, “NOVEL MACROCYCLIC INHIBITORS OF HEPATITIS C VIRUS REPLICATION” (priority 2007, published 2009).

Legend:
[1] = molecular target: T1, NS3-NS4 (Hepatitis C virus genotype 1a, UniProt P27958); assay: cell-based; conditions: EC50, NS3-NS4 activity
[2] = molecular target: T1, NS3-NS4; assay: NS3-NS4 activity, IC50 (Example 37, Table 8); format: biochemical

T1 sequence (P27958 1027-1657): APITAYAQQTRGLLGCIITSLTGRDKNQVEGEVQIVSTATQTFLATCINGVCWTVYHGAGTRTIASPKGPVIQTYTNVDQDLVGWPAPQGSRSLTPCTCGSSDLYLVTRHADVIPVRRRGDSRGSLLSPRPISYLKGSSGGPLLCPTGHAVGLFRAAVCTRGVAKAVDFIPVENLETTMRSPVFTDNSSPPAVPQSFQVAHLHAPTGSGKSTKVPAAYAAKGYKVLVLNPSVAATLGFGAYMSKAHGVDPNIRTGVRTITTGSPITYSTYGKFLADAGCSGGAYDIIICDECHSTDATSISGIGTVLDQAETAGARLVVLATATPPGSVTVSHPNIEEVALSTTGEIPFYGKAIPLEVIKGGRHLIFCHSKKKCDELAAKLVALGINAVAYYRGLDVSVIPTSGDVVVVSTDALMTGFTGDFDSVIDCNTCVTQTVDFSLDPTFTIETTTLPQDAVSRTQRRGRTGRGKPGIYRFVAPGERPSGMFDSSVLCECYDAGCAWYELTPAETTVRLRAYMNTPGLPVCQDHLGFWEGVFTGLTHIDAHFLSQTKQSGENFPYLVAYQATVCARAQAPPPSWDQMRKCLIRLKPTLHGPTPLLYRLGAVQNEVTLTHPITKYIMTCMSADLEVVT
T1 sequence (P27958 1658-1711): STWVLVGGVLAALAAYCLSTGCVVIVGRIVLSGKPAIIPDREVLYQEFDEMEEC

Row | Structure (SMILES) | EC50 [1] [nM] | IC50 [2] [nM]
1 | CC(C)(C)OC(=O)N[C@H]1CCCCC/C=C\C2CC2(C(=O)NOc2ccccc2)NC(=O)[C@@H]2C[C@@H](OC(=O)N3Cc4cccc(F)c4C3)CN2C1=O (stereo in doubt) [Compound 101, (2R,6S,13aS,14aR,16aS,Z)-6-(tert-butoxycarbonylamino)-5,16-dioxo-14a-(phenoxycarbamoyl)-1,2,3,5,6,7,8,9,10,11,13a,14,14a,15,16,16a-hexadecahydrocyclopropa[e]pyrrolo[1,2-a][1,4]diazacyclopentadecin-2-yl 4-fluoroisoindoline-2-carboxylate] | < 100 | < 100
2 | CC(C)(C)OC(=O)N[C@H]1CCCCC/C=C\[C@@H]2C[C@@]2(C(=O)NOCC2CC2)NC(=O)[C@@H]2C[C@@H](OC(=O)N3Cc4cccc(F)c4C3)CN2C1=O [Compound 102, (2R,6S,13aS,14aR,16aS,Z)-6-(tert-butoxycarbonylamino)-14a-(cyclopropylmethoxycarbamoyl)-5,16-dioxo-1,2,3,5,6,7,8,9,10,11,13a,14,14a,15,16,16a-hexadecahydrocyclopropa[e]pyrrolo[1,2-a][1,4]diazacyclopentadecin-2-yl 4-fluoroisoindoline-2-carboxylate] | < 100 | –
3 | CC(C)(C)ONC(=O)[C@@]12C[C@H]1/C=C\CCCCC[C@H](NC(=O)OC(C)(C)C)C(=O)N1C[C@H](OC(=O)N3Cc4cccc(F)c4C3)C[C@H]1C(=O)N2 [Compound 103, (2R,6S,13aS,14aR,16aS,Z)-14a-(tert-butoxycarbamoyl)-6-(tert-butoxycarbonylamino)-5,16-dioxo-1,2,3,5,6,7,8,9,10,11,13a,14,14a,15,16,16a-hexadecahydrocyclopropa[e]pyrrolo[1,2-a][1,4]diazacyclopentadecin-2-yl 4-fluoroisoindoline-2-carboxylate] | < 100 | –
4 | CONC(=O)[C@@]12C[C@H]1/C=C\CCCCC[C@H](NC(=O)OC(C)(C)C)C(=O)N1C[C@H](OC(=O)N3Cc4cccc(F)c4C3)C[C@H]1C(=O)N2 [Compound 104, (2R,6S,13aS,14aR,16aS,Z)-6-(tert-butoxycarbonylamino)-14a-(methoxycarbamoyl)-5,16-dioxo-1,2,3,5,6,7,8,9,10,11,13a,14,14a,15,16,16a-hexadecahydrocyclopropa[e]pyrrolo[1,2-a][1,4]diazacyclopentadecin-2-yl 4-fluoroisoindoline-2-carboxylate] | 1000 to 10000 | < 100
5 | CC(C)(C)OC(=O)N[C@H]1CCCCC/C=C\[C@@H]2C[C@@]2(C(=O)NOCc2ccc(C(F)(F)F)cc2)NC(=O)[C@@H]2C[C@@H](OC(=O)N3Cc4cccc(F)c4C3)CN2C1=O [Compound 105, (2R,6S,13aS,14aR,16aS,Z)-6-(tert-butoxycarbonylamino)-5,16-dioxo-14a-(4-(trifluoromethyl)benzyloxycarbamoyl)-1,2,3,5,6,7,8,9,10,11,13a,14,14a,15,16,16a-hexadecahydrocyclopropa[e]pyrrolo[1,2-a][1,4]diazacyclopentadecin-2-yl 4-fluoroisoindoline-2-carboxylate] | 10000 to 50000 | < 100
6 | CC(C)(C)OC(=O)N[C@H]1CCCCC/C=C\[C@@H]2C[C@@]2(C(=O)NOCCO)NC(=O)[C@@H]2C[C@@H](OC(=O)N3Cc4cccc(F)c4C3)CN2C1=O [Compound 106] | 100 to 1000 | < 100
7 | CC(C)(C)OC(=O)N[C@H]1CCCCC/C=C\[C@@H]2C[C@@]2(C(=O)NOCc2ccccc2)NC(=O)[C@@H]2C[C@@H](OC(=O)N3Cc4cccc(F)c4C3)CN2C1=O [Compound 107] | 1000 to 10000 | < 100
8 | CC(C)(C)ONC(=O)[C@@]12C[C@H]1/C=C\CCCCC[C@H](NC(=O)OC(C)(C)C)C(=O)N1C[C@H](OC(=O)N3Cc4cccc(Cl)c4C3)C[C@H]1C(=O)N2 [Compound 108] | < 100 | < 100
9 | C[C@H](O)CONC(=O)[C@@]12C[C@H]1/C=C\CCCCC[C@H](NC(=O)OC(C)(C)C)C(=O)N1C[C@H](OC(=O)N3Cc4cccc(F)c4C3)C[C@H]1C(=O)N2 [Compound 110] | < 100 | < 100
10 | CC(C)c1cnc(N[C@H]2CCCCC/C=C\[C@@H]3C[C@@]3(C(=O)NS(=O)(=O)C3CC3)NC(=O)[C@@H]3C[C@@H](OC(=O)N4Cc5cccc(F)c5C4)CN3C2=O)s1 [Compound 201, (2R,6S,13aS,14aR,16aS,Z)-14a-(cyclopropylsulfonylcarbamoyl)-6-(5-isopropylthiazol-2-ylamino)-5,16-dioxo-1,2,3,5,6,7,8,9,10,11,13a,14,14a,15,16,16a-hexadecahydrocyclopropa[e]pyrrolo[1,2-a][1,4]diazacyclopentadecin-2-yl 4-fluoroisoindoline-2-carboxylate] | < 100 | < 100
11 | CC(C)(C)O[C@@H]1C[C@H]2C(=O)N[C@]3(C(=O)NS(=O)(=O)C4CC4)C[C@H]3/C=C\CCCCC[C@H](Nc3ncc(-c4ccccc4)s3)C(=O)N2C1 [Compound 202, (2R,6S,13aS,14aR,16aS,Z)-2-tert-butoxy-N-(cyclopropylsulfonyl)-5,16-dioxo-6-(5-phenylthiazol-2-ylamino)-1,2,3,5,6,7,8,9,10,11,13a,14,14a,15,16,16a-hexadecahydrocyclopropa[e]pyrrolo[1,2-a][1,4]diazacyclopentadecine-14a-carboxamide] | 100 to 1000 | < 100
12 | CC(=O)O[C@@H]1C[C@H]2C(=O)N[C@]3(C(=O)NS(=O)(=O)C4CC4)C[C@H]3/C=C\CCCCC[C@H](Nc3ncc(-c4ccccc4)s3)C(=O)N2C1 [Compound 203, (2R,6S,13aS,14aR,16aS,Z)-14a-(cyclopropylsulfonylcarbamoyl)-5,16-dioxo-6-(5-phenylthiazol-2-ylamino)-1,2,3,5,6,7,8,9,10,11,13a,14,14a,15,16,16a-hexadecahydrocyclopropa[e]pyrrolo[1,2-a][1,4]diazacyclopentadecin-2-yl acetate] | 1000 to 10000 | < 100
13 | O=C1N[C@]2(C(=O)NS(=O)(=O)C3CC3)C[C@H]2/C=C\CCCCC[C@H](Nc2nc(-c3ccc(F)cc3)cs2)C(=O)N2C[C@H](Oc3nc(-c4ccccc4)nc4ccccc34)C[C@@H]12 [Compound 204, (2R,6S,13aS,14aR,16aS,Z)-N-(cyclopropylsulfonyl)-6-(4-(4-fluorophenyl)thiazol-2-ylamino)-5,16-dioxo-2-(2-phenylquinazolin-4-yloxy)-1,2,3,5,6,7,8,9,10,11,13a,14,14a,15,16,16a-hexadecahydrocyclopropa[e]pyrrolo[1,2-a][1,4]diazacyclopentadecine-14a-carboxamide] | < 100 | < 100
14 | O=C1N[C@]2(C(=O)NS(=O)(=O)C3CC3)C[C@H]2/C=C\CCCCC[C@H](Nc2nc3c(s2)CCC3)C(=O)N2C[C@H](OC(=O)N3Cc4cccc(F)c4C3)C[C@@H]12 [Compound 206] | 100 to 1000 | < 100
15 | O=C1N[C@]2(C(=O)NS(=O)(=O)C3CC3)C[C@H]2/C=C\CCCCC[C@H](Nc2nc(-c3ccc(Cl)cc3)cs2)C(=O)N2C[C@H](OC(=O)N3Cc4cccc(F)c4C3)C[C@@H]12 [Compound 207] | < 100 | < 100
16 | O=C1N[C@]2(C(=O)NS(=O)(=O)C3CC3)C[C@H]2/C=C\CCCCC[C@H](Nc2nc(-c3ccc(F)cc3)cs2)C(=O)N2C[C@H](OC(=O)N3Cc4cccc(F)c4C3)C[C@@H]12 [Compound 208] | < 100 | < 100
17 | O=C1N[C@]2(C(=O)NS(=O)(=O)C3CC3)C[C@H]2/C=C\CCCCC[C@H](Nc2nc(-c3ccccc3Cl)cs2)C(=O)N2C[C@H](OC(=O)N3Cc4cccc(F)c4C3)C[C@@H]12 [Compound 209] | < 100 | < 100
18 | O=C1N[C@]2(C(=O)NS(=O)(=O)C3CC3)C[C@H]2/C=C\CCCCC[C@H](Nc2nc(-c3ccncc3)cs2)C(=O)N2C[C@H](OC(=O)N3Cc4cccc(F)c4C3)C[C@@H]12 [Compound 210] | < 100 | < 100
19 | N#Cc1ccc(-c2csc(N[C@H]3CCCCC/C=C\[C@@H]4C[C@@]4(C(=O)NS(=O)(=O)C4CC4)NC(=O)[C@@H]4C[C@@H](OC(=O)N5Cc6cccc(F)c6C5)CN4C3=O)n2)cc1 [Compound 211] | < 100 | < 100
20 | O=C1N[C@]2(C(=O)NS(=O)(=O)C3CC3)C[C@H]2/C=C\CCCCC[C@H](Nc2nc(-c3ccccn3)cs2)C(=O)N2C[C@H](OC(=O)N3Cc4cccc(F)c4C3)C[C@@H]12 [Compound 212] | < 100 | < 100
21 | CS(=O)(=O)c1ccc(-c2csc(N[C@H]3CCCCC/C=C\[C@@H]4C[C@@]4(C(=O)NS(=O)(=O)C4CC4)NC(=O)[C@@H]4C[C@@H](OC(=O)N5Cc6cccc(F)c6C5)CN4C3=O)n2)cc1 [Compound 213] | < 100 | < 100
22 | CC(C)(C)OC(=O)N[C@H]1CCCCC/C=C\[C@@H]2C[C@@]2(C(=O)NS(=O)(=O)c2ccc(Cl)s2)NC(=O)[C@@H]2C[C@@H](OC(=O)N3Cc4cccc(F)c4C3)CN2C1=O [Compound 323] | < 100 | –
23 | CCC(C)(C)OC(=O)N[C@H]1CCCCC/C=C\[C@@H]2C[C@@]2(C(=O)NS(=O)(=O)C2CC2)NC(=O)[C@@H]2C[C@@H](OC(=O)N3Cc4cccc(F)c4C3)CN2C1=O [Compound 431] | < 100 | –
24 | CCC(C)(C)OC(=O)N[C@H]1CCCCC/C=C\[C@@H]2C[C@@]2(C(=O)NS(=O)(=O)C2CC2)NC(=O)[C@@H]2C[C@@H](OC(=O)N3Cc4cccc(F)c4C3)CN2C1=O [Compound 438] | 100 to 1000 | –
25 | CC(C)(C)OC(=O)N[C@H]1CCCCC/C=C\[C@@H]2C[C@@]2(C(=O)NOCC2CC2)NC(=O)[C@@H]2C[C@@H](OC(=O)N3Cc4cccc(F)c4C3)CN2C1=O [Compound 717] | – | < 100
26 | Cc1ccccc1ONC(=O)[C@@]12C[C@H]1CCCCCCC[C@H](NC(=O)OC(C)(C)C)C(=O)N1C[C@H](OC(=O)N3Cc4cccc(F)c4C3)C[C@H]1C(=O)N2 [Compound 804] | – | < 100
27 | CC(C)(C)OC(=O)N[C@H]1CCCCCC2CC2[C@@H]2C[C@@]2(C(=O)NOc2ccccc2)NC(=O)[C@@H]2C[C@@H](OC(=O)N3Cc4cccc(F)c4C3)CN2C1=O (some centres unmarked) [Compound 906] | – | < 100
28 | CC(C)(C)OC(=O)N[C@H]1CCCCCC2C([C@@H]3C[C@@]3(C(=O)NS(=O)(=O)C3CC3)NC(=O)[C@@H]3C[C@@H](OC(=O)N4Cc5cccc(F)c5C4)CN3C1=O)C2(Cl)Cl (some centres unmarked) [Compound 907] | – | 100 to 1000
